Target: PRMT5/MEP50 (Homo sapiens (Human), UniProt O14744)
Assay: PRMT5 Biochemical Assay (PRMT5/MEP50 enzyme assay on peptide substrate, 3H-SAM Flashplate)
Conditions: PRMT5/MEP50 biochemical assay; read-out: Biochemical IC50

Chain of PRMT5/MEP50 (O14744 other isoform, or with tags, fused parts or gaps): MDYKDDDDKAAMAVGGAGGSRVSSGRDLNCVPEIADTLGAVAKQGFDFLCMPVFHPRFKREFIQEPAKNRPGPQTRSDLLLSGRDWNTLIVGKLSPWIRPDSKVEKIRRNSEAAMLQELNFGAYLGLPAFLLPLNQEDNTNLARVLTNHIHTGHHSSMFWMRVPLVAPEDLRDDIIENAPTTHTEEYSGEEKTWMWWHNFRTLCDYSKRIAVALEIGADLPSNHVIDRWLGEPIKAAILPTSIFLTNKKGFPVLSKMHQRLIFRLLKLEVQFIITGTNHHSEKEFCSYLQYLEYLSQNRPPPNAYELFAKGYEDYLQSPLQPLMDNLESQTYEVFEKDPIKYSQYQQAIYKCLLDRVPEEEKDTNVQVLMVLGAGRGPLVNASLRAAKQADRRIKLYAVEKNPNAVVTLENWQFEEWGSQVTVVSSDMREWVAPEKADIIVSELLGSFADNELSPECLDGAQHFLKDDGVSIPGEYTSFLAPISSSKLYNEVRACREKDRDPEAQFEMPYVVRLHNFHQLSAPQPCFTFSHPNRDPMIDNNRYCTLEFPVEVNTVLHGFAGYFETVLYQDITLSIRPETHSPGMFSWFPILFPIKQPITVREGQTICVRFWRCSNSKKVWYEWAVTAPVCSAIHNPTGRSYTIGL
Chain of PRMT5/MEP50 (Q9BQA1 other isoform, or with tags, fused parts or gaps partner): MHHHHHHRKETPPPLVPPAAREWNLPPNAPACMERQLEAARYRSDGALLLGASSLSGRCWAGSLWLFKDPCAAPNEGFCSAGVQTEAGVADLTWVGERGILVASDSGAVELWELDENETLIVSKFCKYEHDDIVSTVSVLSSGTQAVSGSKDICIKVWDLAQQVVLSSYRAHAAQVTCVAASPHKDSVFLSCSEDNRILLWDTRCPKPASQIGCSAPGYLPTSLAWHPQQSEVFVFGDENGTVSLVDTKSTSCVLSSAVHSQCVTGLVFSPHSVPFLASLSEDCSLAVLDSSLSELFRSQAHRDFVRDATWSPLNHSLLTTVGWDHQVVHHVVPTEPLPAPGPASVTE

IC50 | SMILES
< 100 nM | O=C(NCC(O)CN1CCc2ccccc2C1)c1ccc(OC2CCOCC2)cc1 (stereo not drawn) [Compound 58, N-(3-(3,4-dihydroisoquinolin-2(1H)-yl)-2-hydroxypropyl)-4-((tetrahydro-2H-pyran-4-yl)oxy)benzamide]
101 to 1000 nM | O=C(NCC(O)CN1CCc2ccccc2C1)c1nccc(NC2CCOCC2)n1 (stereo not drawn) [Compound 76]
< 100 nM | O=C(NCC(O)CN1CCc2ccccc2C1)c1cccc(NC2CCOCC2)n1 (stereo not drawn) [Compound 73]
< 100 nM | CC(=O)N1CCC(Nc2cccc(C(=O)NC[C@H](O)CN3CCc4ccccc4C3)c2)CC1 [Compound 215]
101 to 1000 nM | COc1ccc2cc(C(=O)NCC(O)CN3CCc4ccccc4C3)ccc2n1 (stereo not drawn) [Compound 155]
< 100 nM | CS(=O)(=O)N1CCC(Nc2ccc(C(=O)NCC(O)CN3CCc4ccccc4C3)cc2)CC1 (stereo not drawn) [Compound 141]
< 100 nM | CN(C)CCCOc1ccc(C(=O)NCC(O)CN2CCc3ccccc3C2)cc1 (stereo not drawn) [Compound 178]
< 100 nM | O=C(NCC(O)CN1CCc2ccccc2C1)c1cccc(-c2cccnc2)c1 (stereo not drawn) [Compound 8, N-(3-(3,4-dihydroisoquinolin-2(1H)-yl)-2-hydroxypropyl)-3-(pyridin-3-yl)benzamide]
< 100 nM | O=C(NCC(O)CN1CCc2ccccc2C1)c1cccc(CC2CCOCC2)c1 (stereo not drawn) [Compound 59]
< 100 nM | CN1CCN(Cc2cccc(C(=O)NCC(O)CN3CCc4ccccc4C3)c2)C(CO)C1 (stereo not drawn) [Compound 115]
< 100 nM | CS(=O)(=O)N1CC(Nc2cc(C(=O)NC[C@H](O)CN3CCc4ccccc4C3)ccn2)C1 [Compound 278]
< 100 nM | CC(=O)N1CCC(Oc2cc(C(=O)NC[C@H](O)CN3CCc4ccccc4C3)ncn2)CC1 [Compound 287]
< 100 nM | CS(=O)(=O)N1CCC(Oc2cc(C(=O)NC[C@H](O)CN3CCc4ccccc4C3)ncn2)CC1 [Compound 286]
< 100 nM | O=C(NC[C@H](O)CN1CCc2ccccc2C1)c1ccc2cc(O)ccc2c1 [Compound 318]
< 100 nM | CN(C)C(=O)CCCN1CCN(Cc2cccc(C(=O)NCC(O)CN3CCc4ccccc4C3)c2)CC1 (stereo not drawn) [Compound 194]
< 100 nM | CNC(=O)CN1CCN(Cc2cccc(C(=O)NCC(O)CN3CCc4ccccc4C3)c2)CC1 (stereo not drawn) [Compound 173]
< 100 nM | Cc1c(NC2CCOCC2)ncnc1C(=O)NC[C@H](O)CN1CCc2ccccc2C1 [Compound 231]
101 to 1000 nM | Cc1cnc(OC2CCOCC2)cc1C(=O)NC[C@H](O)CN1CCc2ccccc2C1 [Compound 309]
< 100 nM | O=C(NCC(O)CN1CCc2ccccc2C1)c1cccc(NC2CCOCC2O)c1 (stereo not drawn) [Compound 98]
< 100 nM | CN(c1ccc(C(=O)NCC(O)CN2CCc3ccccc3C2)cc1)C1CCOC1 (stereo not drawn) [Compound 144]
< 100 nM | O=C(NC[C@H](O)CN1CCc2ccccc2C1)c1cc(OC2CCNCC2)ncn1 [Compound 258]
< 100 nM | O=C(NC[C@H](O)CN1CCc2ccccc2C1)c1cccc(OC2CCOCC2)c1 [Compound 82]
< 100 nM | O=C(NC[C@H](O)CN1CCc2ccccc2C1)c1cccc2[nH]cnc12 [Compound 241]
< 100 nM | O=C(NC[C@H](O)CN1CCc2ccccc2C1)c1cc(NC2CCNC2)ncn1 (stereo partly drawn) [Compound 209]
< 100 nM | O=C(O)CCCN1CCN(Cc2cccc(C(=O)NCC(O)CN3CCc4ccccc4C3)c2)CC1 (stereo not drawn) [Compound 158]
< 100 nM | O=C(NC[C@H](O)CN1CCc2ccccc2C1)c1cncc(NC2CCN(CC(F)(F)F)C2)c1 (stereo partly drawn) [Compound 303]

IC50 | SMILES
< 100 nM | NCCNc1cc(C(=O)NC[C@H](O)CN2CCc3ccccc3C2)ccn1 [Compound 320]
< 100 nM | O=C(NC[C@H](O)CN1CCc2ccccc2C1)c1n[nH]c2ccccc12 [Compound 242]
101 to 1000 nM | COCCNc1cccc(C(=O)NCC(O)CN2CCc3ccccc3C2)c1 (stereo not drawn) [Compound 72]
< 100 nM | O=C(NCC(O)CN1CCc2ccccc2C1)c1cccc(C2CCOC2)c1 (stereo not drawn) [Compound 154]
< 100 nM | O=C(NCC(O)CN1CCc2ccccc2C1)c1ccc(OC2CCNC2)cc1 (stereo not drawn) [Compound 176]
101 to 1000 nM | Cc1cc2ncc(C(=O)NC[C@H](O)CN3CCc4ccccc4C3)c(C)n2n1 [Compound 275]
< 100 nM | O=C(NCC(O)CN1CCc2ccccc2C1)c1cccc(NC2CCOCC2)c1F (stereo not drawn) [Compound 79]
101 to 1000 nM | O=C(NCC(O)CN1CCc2ccccc2C1)c1ncc[nH]1 (stereo not drawn) [Compound 170]
< 100 nM | O=C(NC[C@H](O)CN1CCc2ccccc2C1)c1cc(NC2CCN(CC(F)(F)F)C2)ncn1 (stereo partly drawn) [Compound 182]
< 100 nM | O=C(NCC(O)CN1CCc2ccccc2C1)c1ccc(N2CCS(=O)(=O)CC2)cc1 (stereo not drawn) [Compound 179]
< 100 nM | CS(=O)(=O)N1CCC(Oc2cncc(C(=O)NC[C@H](O)CN3CCc4ccccc4C3)c2)CC1 [Compound 290]
< 100 nM | O=C(NC[C@H](O)CN1CCc2ccccc2C1)c1nc2cc(Br)ccc2[nH]1 [Compound 319]
101 to 1000 nM | COCCCNc1cccc(C(=O)NCC(O)CN2CCc3ccccc3C2)c1 (stereo not drawn) [Compound 70]
< 100 nM | O=C(NC[C@H](O)CN1CCc2ccccc2C1)c1cc(NC2CN(CC(F)(F)F)C2)ncn1 [Compound 282]
101 to 1000 nM | CN(CC(O)CN1CCc2ccccc2C1)C(=O)c1cccc(NC2CCOCC2)c1 (stereo not drawn) [Compound 71]
< 100 nM | O=C(NC[C@H](O)CN1CCc2ccccc2C1)c1cc2ccccc2[nH]1 [Compound 269]
< 100 nM | O=C(NCC(O)CN1CCc2ccccc2C1)c1cccc(N2CCNCC2)c1 (stereo not drawn) [Compound 35, N-(3-(3,4-dihydroisoquinolin-2(1H)-yl)-2-hydroxypropyl)-3-(piperazin-1-yl)benzamide]
< 100 nM | CS(=O)(=O)N1CCC(Nc2cc(C(=O)NC[C@H](O)CN3CCc4ccccc4C3)ccn2)C1 (stereo partly drawn) [Compound 227]
< 100 nM | O=C(NC[C@H](O)CN1CCc2ccccc2C1)c1cccc(-c2ccccn2)c1 [Compound 20]
< 100 nM | Cc1ccc(NC2COC2)cc1C(=O)NCC(O)CN1CCc2ccccc2C1 (stereo not drawn) [Compound 97]
< 100 nM | O=C(NC[C@H](O)CN1CCc2ccccc2C1)c1cc(NC2CCNCC2)ncn1 [Compound 180]
< 100 nM | CC(=O)N1CCC(Nc2cccc(C(=O)NCC(O)CN3CCc4ccccc4C3)c2)C1 (stereo not drawn) [Compound 121]
< 100 nM | CC(=O)N1CCC(Nc2ccc(C(=O)NCC(O)CN3CCc4ccccc4C3)cc2)CC1 (stereo not drawn) [Compound 127]
< 100 nM | CS(=O)(=O)N1CCC(Nc2cc(C(=O)NC[C@H](O)CN3CCc4ccccc4C3)ncn2)CC1 [Compound 297]
< 100 nM | O=C(NC[C@H](O)CN1CCc2ccccc2C1)c1ccnc(NC2CCN(CC(F)(F)F)CC2)c1 [Compound 224]
101 to 1000 nM | Cn1nccc1C(=O)NCC(O)CN1CCc2ccccc2C1 (stereo not drawn) [Compound 150]

IC50 | SMILES
< 100 nM | CC(=O)N(C)CCN(C)c1cc(C(=O)NC[C@H](O)CN2CCc3ccccc3C2)ccn1 [Compound 291]
101 to 1000 nM | Cc1ccc(NC2CCOCC2)cc1C(=O)NCC(O)CN1CCc2ccccc2C1 (stereo not drawn) [Compound 95]
< 100 nM | CS(=O)(=O)N1CCC(Oc2ccc(C(=O)NCC(O)CN3CCc4ccccc4C3)cc2)C1 (stereo not drawn) [Compound 198]
< 100 nM | O=C(NC[C@H](O)CN1CCc2ccccc2C1)c1ccnc(NCC2CCCCN2)c1 (stereo partly drawn) [Compound 237]
< 100 nM | O=C(NCC(O)CN1CCc2ccccc2C1)c1ccc(OC2CCNCC2)cc1 (stereo not drawn) [Compound 104]
< 100 nM | Cc1ccc2cc(C(=O)NC[C@@H](O)CN3CCc4ccccc4C3)ccc2n1 [Compound 219, (R)—N-(3-(3,4-dihydroisoquinolin-2(1H)-yl)-2-hydroxypropyl)-2-methylquinoline-6-carboxamide]
< 100 nM | O=C(NC[C@H](O)CN1CCc2ccccc2C1)c1ccc(OC2CCN(CCO)CC2)cc1 [Compound 321]
< 100 nM | Cc1ccc(NC2CCOC2)cc1C(=O)NCC(O)CN1CCc2ccccc2C1 (stereo not drawn) [Compound 96]
101 to 1000 nM | O=C(NCC(O)CN1CCc2ccccc2C1)c1ccn[nH]1 (stereo not drawn) [Compound 148]
< 100 nM | CN(c1cc(C(=O)NC[C@H](O)CN2CCc3ccccc3C2)ccn1)C1CCOCC1 [Compound 324]
< 100 nM | O=C(NC[C@H](O)CN1CCc2ccccc2C1)c1ccnc(OC2CCNCC2)c1 [Compound 229]
< 100 nM | CC(C)N1CCC(Nc2cccc(C(=O)NCC(O)CN3CCc4ccccc4C3)c2)C1 (stereo not drawn) [Compound 101]
< 100 nM | O=C(NCC(O)CN1CCc2ccccc2C1)c1ccc(-c2ccccn2)cc1 (stereo not drawn) [Compound 13, N-(3-(3,4-dihydroisoquinolin-2(1H)-yl)-2-hydroxypropyl)-4-(pyridin-2-yl)benzamide]
< 100 nM | O=C(NC[C@H](O)CN1CCc2ccccc2C1)c1ccc2ncsc2c1 [Compound 273]
< 100 nM | O=C(NC[C@H](O)CN1CCc2ccccc2C1)c1cncc(NC2COC2)c1 [Compound 299]
101 to 1000 nM | COc1ccc(C(=O)NCC(O)CN2CCc3ccccc3C2)cc1NC1CCOCC1 (stereo not drawn) [Compound 67]
< 100 nM | O=C(NC[C@H](O)CN1CCc2ccccc2C1)c1ccc2c(c1)CCO2 [Compound 243]
< 100 nM | O=C(NC[C@@H](O)CN1CCc2ccccc2C1)c1ccnc(NC2CCOCC2)c1 [Compound 184]
< 100 nM | COc1cc(C(=O)NC[C@H](O)CN2CCc3ccccc3C2)cc(NC2CCC2)n1 [Compound 332]
< 100 nM | O=C(NC[C@H](O)CN1CCc2ccccc2C1)c1ccc2c(c1)OCCO2 [Compound 274]
101 to 1000 nM | O=C(NC[C@H](O)CN1CCc2ccccc2C1)c1ccc2[nH]cnc2c1 [Compound 294]
< 100 nM | CNC(=O)CCCN1CCN(Cc2cccc(C(=O)NCC(O)CN3CCc4ccccc4C3)c2)CC1 (stereo not drawn) [Compound 175]
< 100 nM | O=C(NCC(O)CN1CCc2ccccc2C1)c1cccc(NC2CCOCC2)c1 (stereo not drawn) [Compound 16, N-(3-(3,4-dihydroisoquinolin-2(1H)-yl)-2-hydroxypropyl)-3-((tetrahydro-2H-pyran-4-yl)amino)benzamide]
< 100 nM | O=C(NC[C@H](O)CN1CCc2ccccc2C1)c1cc2ccccc2o1 [Compound 271]
< 100 nM | O=C(NC[C@H](O)CN1CCc2ccccc2C1)c1cncc(NC2CCOCC2)c1 [Compound 298]

SMILES | IC50
CN(C[C@H](O)CN1CCc2ccccc2C1)C(=O)c1cc(NC2CCOCC2)ncn1 [Compound 232] | 101 to 1000 nM

From patent publication US9675614B2, “PRMT5 inhibitors and uses thereof” (Epizyme, Inc., priority 2012, dated 2017)
